What was measured:
[1] = test system: automated midbrain organoids (AMOs); assay: Viability of 3D AMOs (CellTiter-Glo 3D) in the 2D vs 3D comparison; format: cell-based, human; conditions: for IC50: Homo sapiens, 48 h exposure from day 50
Procedure: We cultured AMOs for 47 days in our automated system as described above. On day 47, we exchanged the organoid medium to a minimal tox medium (TM, consisting of DMEM/F-12 with 1% N2 supplement and 1% penicillin/streptomycin/glutamine) to reduce possible interference from antioxidants in the B27 media supplement. The next day, we treated the AMOs with the compounds from the library at a concentration of 100 μM in TM with some deviations due to solubility (see Supplementary Table 1 for a complete list of compounds including their final concentrations in the screen). DMSO control samples contained 0.5% (v/v) DMSO, which is equivalent to the amount of solvent in the samples that received compound treatment. After 48 h of incubation with the compounds, we either directly processed the organoids for the 48-h time point or renewed the compounds in TM once to achieve 96 h of incubation. Following either 48 or 96 h of compound incubation, we used the CellTiter-Glo 3D cell viability assay (Promega) to measure the viability of individual organoids, as previously described (Renner et al., [2020]). Briefly, the 96-well plates of AMOs and the reagents were brought to room temperature for 30 min. We adjusted the media volume of each well to 55 μl and added an equal volume (55 μl) of the CellTiter-Glo 3D reagent. Next, the samples were shaken on a Thermomixer (Eppendorf) at 900 rpm for 5 min and then incubated for 25 min at room temperature while protected from light. To minimize signal cross-talk between adjacent wells, we transferred the contents of the clear 96-well culture plates to white/opaque 384-well Lumitrac plates (Greiner) with two technical replicates (20 μl each) per sample, after the incubation. We recorded the luminescence immediately after the transfer using a Synergy Mx plate reader (BioTek). We outputted the results to Microsoft Excel for reformatting and then transferred them to GraphPad Prism v9.0.1 (Graphpad Software, Inc.) for plotting and statistical analysis.
To compare the toxic effects of compounds on AMOs and 2D-cultured midbrain dopaminergic neurons, we seeded and cultured both in parallel and generated them from the same smNPC starting cell population. For 2D dopaminergic neuron differentiation, smNPCs were seeded in 1% (v/v in KO-DMEM/F-12) Matrigel-coated 6-well plates and standard smNPC medium, following digestion by accutase as described above. From day 2 onwards, they were treated identically with the AMOs (i.e., they received the same media at the same timepoints). To work with the 2D dopaminergic neurons in a screening setting (and have the same plate format as the AMOs), we reseeded them to flat-bottom 96-well plates (“μCLEAR”, black, Greiner) at a density of 70,000 cells/well on day 48. On day 49, the medium of both 2D mDA neurons and 3D AMOs was exchanged to tox medium. The next day, we treated them with different concentrations (0.01, 0.1, 1, 10, 50, 100, 200, 500, and 1,000 μM; controls received the corresponding solvent at an amount equivalent to the highest compound concentration; n = 6 per concentration) of the compounds lindane (Sigma-Aldrich, in ethanol) and 6-hydroxydopamine hydrochloride (Sigma Aldrich, in DMSO) in tox medium. After 48 h of incubation, we measured the samples’ viability. For the AMOs, we used the CellTiter-Glo 3D cell viability assay as described above. We measured the 2D mDA neuron viability with the CellTiter-Glo 2.0 cell viability assay (Promega) according to the manufacturer’s instructions. In short, we brought the sample plates and reagents to room temperature for 30 min. We adjusted the media volume of the samples to 50 μl and added an equal volume (50 μl) of the CellTiter-Glo 2.0 reagent. We let the plate shake for 2 min at 900 rpm on a Thermomixer and then incubated them for 10 min at room temperature and protected from light. Immediately afterward, we measured the luminescence on a Synergy Mx plate reader. […]

[2] = test system: 2D-cultured midbrain dopaminergic (mDA) neurons; assay: Viability of 2D-cultured mDA neurons (CellTiter-Glo 2.0) in the 2D vs 3D comparison; format: cell-based; conditions: Homo sapiens, Neuron, 2D mDA neurons, 48 h exposure from day 50
Procedure: To compare the toxic effects of compounds on AMOs and 2D-cultured midbrain dopaminergic neurons, we seeded and cultured both in parallel and generated them from the same smNPC starting cell population. For 2D dopaminergic neuron differentiation, smNPCs were seeded in 1% (v/v in KO-DMEM/F-12) Matrigel-coated 6-well plates and standard smNPC medium, following digestion by accutase as described above. From day 2 onwards, they were treated identically with the AMOs (i.e., they received the same media at the same timepoints). To work with the 2D dopaminergic neurons in a screening setting (and have the same plate format as the AMOs), we reseeded them to flat-bottom 96-well plates (“μCLEAR”, black, Greiner) at a density of 70,000 cells/well on day 48. On day 49, the medium of both 2D mDA neurons and 3D AMOs was exchanged to tox medium. The next day, we treated them with different concentrations (0.01, 0.1, 1, 10, 50, 100, 200, 500, and 1,000 μM; controls received the corresponding solvent at an amount equivalent to the highest compound concentration; n = 6 per concentration) of the compounds lindane (Sigma-Aldrich, in ethanol) and 6-hydroxydopamine hydrochloride (Sigma Aldrich, in DMSO) in tox medium. After 48 h of incubation, we measured the samples’ viability. For the AMOs, we used the CellTiter-Glo 3D cell viability assay as described above. We measured the 2D mDA neuron viability with the CellTiter-Glo 2.0 cell viability assay (Promega) according to the manufacturer’s instructions. In short, we brought the sample plates and reagents to room temperature for 30 min. We adjusted the media volume of the samples to 50 μl and added an equal volume (50 μl) of the CellTiter-Glo 2.0 reagent. We let the plate shake for 2 min at 900 rpm on a Thermomixer and then incubated them for 10 min at room temperature and protected from light. Immediately afterward, we measured the luminescence on a Synergy Mx plate reader. We outputted the results to Microsoft Excel and GraphPad Prism v9.0.1 for reformatting, plotting, and analysis. Data processing was performed as outlined for the CellTiter-Glo 3D-based viability assay above, except for the averaging of technical replicates, as measurements were performed directly in the culture plate without additional technical replicates.
All other data analysis steps including the statistical analysis to identify significant differences in toxicity between 2D and 3D (via multiple unpaired t-tests with the same parameters as above, corrected for using the Bonferroni-Dunn method, and considering padj <0.05 as significant), as well as dose-response curve fitting, were performed as described in detail above. The IC50 values were taken from the same regression/analysis as the dose-response curves.

[3] = test system: TH+ dopaminergic and Map2+ general neurons in AMOs; assay: Primary cell-type-specific toxicity screen (whole-mount TH/Map2 staining, high content imaging); format: cell-based, human; conditions: approx. 100 μM, 48 h + 6 days, shared between both AMO lines, padj < 0.05
Procedure: All processing steps were conducted in an HTS-compatible automated liquid handling system (ALHS, a Biomek FXP liquid handling station). To quantify different cellular subpopulations within the AMOs, we employed our previously described (Renner et al., [2020], [2021b]) ALHS-compatible workflow for combined whole-mount staining and clearing, with minor modifications. We fixed the AMOs with 4% PFA (VWR) for 10–15 min and stained the entire aggregates with primary and secondary antibodies for 6 days each. The antibodies used in this study were as follows. Primary: mouse anti-Map2 (1:1,000, Merck Millipore, cat#: MAB3418) and rabbit anti-TH (1:500, Abcam, cat#: ab112). Secondary: donkey anti-mouse IgG, Alexa Fluor 488 conjugated (1:1,000, Thermo Fisher, cat#: A-21202) and donkey anti-rabbit IgG, Alexa Fluor 647 conjugated (1:1,000, Thermo Fisher, cat#: A-31573). The antibodies were diluted in blocking and permeabilization solution consisting of 6% BSA, 0.5% Triton-X 100 (Roth), 0.1% (w/v) sodium azide (Sigma-Aldrich) in PBS (Sigma-Aldrich) and immediately added after fixation following a triple rinse with PBS. We renewed the antibody solutions once after three days. As a nuclear counter stain, we added DAPI (1 μg/ml, Sigma-Aldrich) to the solution containing the secondary antibodies. Between primary and secondary antibody application and after finishing the secondary antibody incubation, we washed the samples overnight with 0.1% Triton X-100 in PBS, with a total of five exchanges of the washing solution. […]
We prepared and treated the AMOs with the compounds as described for the primary viability screen. […] We performed automated image acquisition of entire 96-well plates on an Operetta high content imager (Perkin Elmer) and analyzed images in the Harmony 4.1 software and/or Columbus version 2.6.0 as previously described (Renner et al., [2020]), with adjustments to account for the individual properties of the staining and samples. […]

[4] = test system: automated midbrain organoids (AMOs); assay: Dose-response analysis, ATP-based overall AMO viability; format: cell-based, human; conditions: 48 h + 6 days; for viability: 0.01-1,000 μM (rotenone up to 100 μM), both AMO lines
Procedure: AMOs were cultured as described above for 47 days. On day 47, we exchanged their medium to tox medium (TM), initially without the addition of any compounds. […] For each compound, we included n = 8 controls per compound treated with the corresponding solvent at an amount equivalent to the highest compound concentration. To assess viability and cell type-specific toxicity in parallel and under the same conditions, we treated all samples with the compounds for 48 h, then exchanged their medium to standard culture medium without compounds and maintained them for an additional 6 days before analysis to allow breakdown and removal of cellular debris. Organoid viability and cell type-specific toxicity were analyzed as described for the primary screens. Here, we acquired five confocal planes spaced 36.6 μm apart in our Operetta high content imager. The image analysis of the AMOs for cell type-specific toxicity assessment required minor adjustments to account for the individual properties of the staining. […] For Map2, we performed Gaussian smoothing with a width of 10 px and omitted the additional sliding parabola filter. The other steps were performed as outlined for the primary cell-type-specific toxicity screen. […] In detail: The dose-response series, including the individual solvent controls, was performed for every compound on a separate 96-well plate of AMOs with initially n = 8 organoids per concentration. […] Data processing, including normalizations, was performed for each individual compound/plate as outlined above for the primary screens. Significant differences between the Map2 and TH content were also determined in GraphPad Prism as described for the primary screen and with the same parameters (multiple comparisons were performed for the different concentrations instead of compounds).

[5] = test system: TH+ dopaminergic and Map2+ general neurons in AMOs; assay: Dose-response analysis, TH and Map2 content by high content imaging; format: cell-based, human; conditions: 48 h + 6 days; for Map2 content (general neurons) / TH content (dopaminergic neurons): 0.01-1,000 μM (rotenone up to 100 μM), both AMO lines; for TH levels compared to Map2 levels: dose-response, padj < 0.05
Procedure: All processing steps were conducted in an HTS-compatible automated liquid handling system (ALHS, a Biomek FXP liquid handling station). To quantify different cellular subpopulations within the AMOs, we employed our previously described (Renner et al., [2020], [2021b]) ALHS-compatible workflow for combined whole-mount staining and clearing, with minor modifications. We fixed the AMOs with 4% PFA (VWR) for 10–15 min and stained the entire aggregates with primary and secondary antibodies for 6 days each. The antibodies used in this study were as follows. Primary: mouse anti-Map2 (1:1,000, Merck Millipore, cat#: MAB3418) and rabbit anti-TH (1:500, Abcam, cat#: ab112). Secondary: donkey anti-mouse IgG, Alexa Fluor 488 conjugated (1:1,000, Thermo Fisher, cat#: A-21202) and donkey anti-rabbit IgG, Alexa Fluor 647 conjugated (1:1,000, Thermo Fisher, cat#: A-31573). The antibodies were diluted in blocking and permeabilization solution consisting of 6% BSA, 0.5% Triton-X 100 (Roth), 0.1% (w/v) sodium azide (Sigma-Aldrich) in PBS (Sigma-Aldrich) and immediately added after fixation following a triple rinse with PBS. We renewed the antibody solutions once after three days. As a nuclear counter stain, we added DAPI (1 μg/ml, Sigma-Aldrich) to the solution containing the secondary antibodies. Between primary and secondary antibody application and after finishing the secondary antibody incubation, we washed the samples overnight with 0.1% Triton X-100 in PBS, with a total of five exchanges of the washing solution. After the whole-mount staining, we performed BABB-based tissue clearing (Dent et al., [1989]) to allow image acquisition with single-cell resolution of the entire aggregates. For this purpose, we first dehydrated the AMOs via a stepwise methanol (Roth) series (25%, 50%, 70%, 90%, and 100%, each for 15 min). For clearing and imaging, we transferred them to organic solvent-resistant cyclo-olefin 96-well flat-bottom plates (“Screenstar”, Greiner Bio-One). Finally, we incubated the samples for 30 min in 1:1 (v/v) methanol/BABB (BABB consisted of benzyl alcohol (Sigma-Aldrich) and benzyl benzoate (Sigma-Aldrich) at a 1:1 (v/v) ratio) and then kept them in 100% BABB in the dark for storage and subsequent automated high content confocal fluorescent analysis.
We prepared and treated the AMOs with the compounds as described for the primary viability screen. On day 50, after 48 h of compound incubation, we replaced the medium with standard AMO medium and maintained the AMOs for 6 additional days under standard culture conditions. This additional time allows the cells killed by the compounds to be cleared from the aggregates. After the 6 days, we fixed the organoids with 4% PFA, whole-mount-stained them for TH and Map2, and tissue-cleared them as described above. To achieve uniform aggregate positioning within the wells before imaging, we tilted the plates off the horizontal plane at 60 degrees for a minimum of 5 min. We performed automated image acquisition of entire 96-well plates on an Operetta high content imager (Perkin Elmer) and analyzed images in the Harmony 4.1 software and/or Columbus version 2.6.0 as previously described (Renner et al., [2020]), with adjustments to account for the individual properties of the staining and samples. We acquired three medial planes for each organoid, spaced 36.6 μm apart to avoid double-sampling individual morphological features. For the analysis, we defined the organoid region in each image by summing all channels, removed small localized features with a median filter (10 px), and identified putative organoids/regions of interest (ROIs) with the “find image region” function. To identify bona fide AMOs and exclude image artifacts and dust, we selected the ROIs with an area >9,000 μm^2, roundness >0.4, and mean DAPI intensity >190 arbitrary brightness units (abu).

[6] = test system: automated midbrain organoids (AMOs); assay: Primary organoid viability screen (ATP-based CellTiter-Glo 3D); format: cell-based, human; conditions: approx. 100 μM, 48 or 96 h, two AMO lines
Procedure: We cultured AMOs for 47 days in our automated system as described above. On day 47, we exchanged the organoid medium to a minimal tox medium (TM, consisting of DMEM/F-12 with 1% N2 supplement and 1% penicillin/streptomycin/glutamine) to reduce possible interference from antioxidants in the B27 media supplement. The next day, we treated the AMOs with the compounds from the library at a concentration of 100 μM in TM with some deviations due to solubility (see Supplementary Table 1 for a complete list of compounds including their final concentrations in the screen). DMSO control samples contained 0.5% (v/v) DMSO, which is equivalent to the amount of solvent in the samples that received compound treatment. After 48 h of incubation with the compounds, we either directly processed the organoids for the 48-h time point or renewed the compounds in TM once to achieve 96 h of incubation. […] We recorded the luminescence immediately after the transfer using a Synergy Mx plate reader (BioTek). […]
In detail: All compounds including their controls were arrayed on a single 96-well plate (see Supplementary Table 1 for well positions), and replicated across three plates for a total of n = 3 replicates per condition (except AMO line 2 at 48 h n = 2). […] During our analysis, we first averaged the two technical replicates from the luminescence measurement in Microsoft Excel, yielding one averaged luminescence value for each well of the original 96-well AMO plates. Then, we normalized the luminescence detected in each well to the mean luminescence of the four DMSO controls of the same plate to get a relative organoid viability value. Normalization was performed separately for each plate to account for and correct for potential differences during the luminescence measurements. […] We further assessed the homogeneity of the AMOs by calculating the coefficient of variation (CV) for the relative viabilities of the DMSO controls (i.e., we divided the standard deviations by the corresponding means and averaged the resulting CV values for the DMSO controls). […]

SMILES	significant difference in reduction between TH and Map2 (dopaminergic neuron-specific toxicity) [3]	viability [4]	Map2 content (general neurons) [5]	TH content (dopaminergic neurons) [5]	TH levels compared to Map2 levels [5]	toxicity in the primary screens [6]	other results
Cl.NCCc1cc(O)c(O)cc1O [6OHDA, 6-hydroxydopamine hydrochloride, reference compound]							IC50 ([1]; AMO line 1, 3D): 315 µM; IC50 ([1]; AMO line 2, 3D): 269 µM; toxicity in 3D AMOs compared with 2D-cultured dopaminergic neurons ([1]; both cell lines, 48 h, 0.01-1,000 μM, padj < 0.05): significantly stronger toxic effect in 2D than 3D; IC50 ([2]; AMO line 1 cell line): 44.2 µM; IC50 ([2]; AMO line 2 cell line): 65 µM
COc1ccc2cc3[n+](cc2c1OC)CCc1cc2c(cc1-3)OCO2 [BC, berberine chloride]	statistically significant difference in reduction between TH and Map2	strongly reduced	strongly reduced	strongly reduced	significantly reduced TH levels compared to Map2 over a broad range of concentrations		
Oc1c(Cl)cc(Cl)c(Cl)c1Cc1c(O)c(Cl)cc(Cl)c1Cl [HCP, hexachlorophene]		strongly reduced	strongly reduced	strongly reduced		highly toxic	
CC(C)(c1cc(Br)c(O)c(Br)c1)c1cc(Br)c(O)c(Br)c1 [TBBPA, 3,3′,5,5′-tetrabromobisphenol A]	statistically significant difference in reduction between TH and Map2	strongly reduced	strongly reduced	strongly reduced	significantly reduced TH levels compared to Map2 over a broad range of concentrations		
O=C1C2CC=CCC2C(=O)N1SC(Cl)(Cl)Cl (stereo not shown) [captan]			reduced	reduced	significantly reduced TH levels compared to Map2 over a broad range of concentrations	intermediate toxicity	overall toxicity in the dose-response experiments ([4]; 0.01-1,000 μM, viability, Map2 and TH readouts): intermediate compared to ASS and the more toxic compounds
[CH3][Hg][Cl] [methyl mercuric (II) chloride]	statistically significant difference in reduction between TH and Map2						

Source: paper PMC8321240, “Cell-Type-Specific High Throughput Toxicity Testing in Human Midbrain Organoids” (Frontiers in Molecular Neuroscience, 2021)
